The values below come from paper PMC6379670, “An ultra-high affinity ligand of HIV-1 TAR reveals the RNA structure recognized by P-TEFb” (Nucleic Acids Research, 2018).

Non-standard residues stand in square brackets, D forms with d. Residues, ends and D or L forms follow the SMILES beside them. Orn = NCCC[C@H](N)C(=O)O; Dab = NCC[C@H](N)C(=O)O Some results are limits rather than exact numbers.

For one assay, the target named is HIV-1 TAR RNA. It is filed as binding. Conditions: EMSA, 32P radiolabeled HIV-1 TAR RNA, [RNA]=75pM; Table 1; read-out: K D (HIV). On the procedure:
Electro Mobility Shift Assays (EMSA) and 2-aminopurine fluorescence ([35]) were used to measure peptide binding. For EMSA, all RNAs were 5′-dephosphorylated ([25],[26]) and 5′-rephosphorylated using T4 Polynucleotide Kinase (PNK); shifts were performed and analyzed as previously described ([14]). The P-TEFb/Tat1:57/AFF4 binding assays were run as described ([11]), with protein samples generously donated by Drs Ursula Schulze-Gahmen and James Hurley, but binding buffers contained 250× fold excess yeast tRNA. JB181-bound samples were prepared with 3× excess labeled HIV-TAR prior to titration with the pre-formed P-TEFb/Tat1:57/AFF4 complex.
Fig. S1. a) HIV-1 TAR, BIV TAR and 7SK-SL4 RNAs have similar secondary structures, but the JB181 peptide discriminates between them. […]
tightly than BIV TAR (3.3 nM) or 7SK (>3 μM) RNAs. b) EMSA of representative JB-peptides with 32P radiolabeled HIV-1 TAR RNA ([RNA]=75pM). The peptide concentration increases from left to right, as indicated. The dissociation constant can be estimated by the peptide concentration where there is an approximate 1:1 ratio (as established by visual inspection) between free RNA and complex, since the RNA concentration is much lower than the KD.
(1 picture or pasted object on this page, not shown here)
For orientation: In EMSA bound probe runs differently from free probe, usually more slowly.
As for `CC[C@H](C)[C@@H]1NC(=O)[C@H](CCCNC(=N)N)NC(=O)[C@H](CCCNC(=N)N)NC(=O)CNC(=O)[C@H](CCCCN)NC(=O)[C@H](CCCNC(=N)N)NC(=O)[C@H]([C@@H](C)O)NC(=O)[C@H](CCCNC(=N)N)NC(=O)[C@H](C(C)C)NC(=O)[C@H](CCCN)NC(=O)[C@@H]2CCCN2C(=O)[C@H]2CCCN2C(=O)[C@H]([C@@H](C)CC)NC(=O)[C@H](CCCNC(=N)N)NC1=O` [JB58] (cyclo([Orn]VRTRKGRRIRI[dP]P)), the Kd is 3 ± 0.3 nM. The same measure, in the same setting: the same measure for `CC[C@H](C)[C@@H]1NC(=O)[C@H](CCCNC(=N)N)NC(=O)[C@H](CCCNC(=N)N)NC(=O)CNC(=O)[C@H](CCCCN)NC(=O)[C@H](CCCNC(=N)N)NC(=O)[C@H]([C@@H](C)O)NC(=O)[C@H](CCCNC(=N)N)NC(=O)[C@H](C(C)C)NC(=O)[C@H](CCN)NC(=O)[C@@H]2CCCN2C(=O)[C@H]2CCCN2C(=O)[C@H]([C@@H](C)CC)NC(=O)[C@H](CCCNC(=N)N)NC1=O` [JB59] (cyclo([Dab]VRTRKGRRIRI[dP]P)): 1 ± 0.3 nM; for `CC[C@H](C)[C@@H]1NC(=O)[C@H](CCCNC(=N)N)NC(=O)[C@H](CCCNC(=N)N)NC(=O)CNC(=O)[C@H](CCCCN)NC(=O)[C@H](CCCNC(=N)N)NC(=O)[C@H]([C@@H](C)O)NC(=O)[C@H](CCCNC(=N)N)NC(=O)[C@H](C(C)C)NC(=O)[C@H](CCN)NC(=O)[C@@H]2CCCN2C(=O)[C@H]2CCCN2C(=O)[C@H](CC(C)C)NC(=O)[C@H](CCCNC(=N)N)NC1=O` [JB185] (cyclo([Dab]VRTRKGRRIRL[dP]P)): 0.5 ± 0.1 nM.

The same assay, now with this note: EMSA; positional scanning library, Table S1; with tRNA; read-out: Kd (nM) w/tRNA.
For `CC[C@H](C)[C@@H]1NC(=O)[C@H](CCCNC(=N)N)NC(=O)[C@H](CCCNC(=N)N)NC(=O)CNC(=O)[C@H](CCCCN)NC(=O)[C@H](CCCNC(=N)N)NC(=O)[C@H]([C@@H](C)O)NC(=O)[C@H](CCCNC(=N)N)NC(=O)[C@H](C(C)C)NC(=O)[C@H](CCC(N)=O)NC(=O)[C@@H]2CCCN2C(=O)[C@H]2CCCN2C(=O)[C@H]([C@@H](C)CC)NC(=O)[C@H](CCCNC(=N)N)NC1=O` [JB-61] (cyclo(QVRTRKGRRIRI[dP]P)), the Kd was more than 1000 nM. In the case of `CC[C@H](C)[C@@H]1NC(=O)[C@H](CCCNC(=N)N)NC(=O)[C@H](CCCNC(=N)N)NC(=O)CNC(=O)[C@H](CCCCN)NC(=O)[C@H](CCCNC(=N)N)NC(=O)[C@H]([C@@H](C)O)NC(=O)[C@H](CCCNC(=N)N)NC(=O)[C@H](CC(=O)O)NC(=O)[C@H](CCCNC(=N)N)NC(=O)[C@@H]2CCCN2C(=O)[C@H]2CCCN2C(=O)[C@H]([C@@H](C)CC)NC(=O)[C@H](CCCNC(=N)N)NC1=O` [JB-64] (cyclo(RDRTRKGRRIRI[dP]P)), the Kd is more than 1000 nM. Same read-out and setting: in the case of `CC[C@H](C)[C@@H]1NC(=O)[C@H](CCCNC(=N)N)NC(=O)[C@H](CCCNC(=N)N)NC(=O)CNC(=O)[C@H](CCCCN)NC(=O)[C@H](CCC(N)=O)NC(=O)[C@H]([C@@H](C)O)NC(=O)[C@H](CCCNC(=N)N)NC(=O)[C@H](C(C)C)NC(=O)[C@H](CCCNC(=N)N)NC(=O)[C@@H]2CCCN2C(=O)[C@H]2CCCN2C(=O)[C@H]([C@@H](C)CC)NC(=O)[C@H](CCCNC(=N)N)NC1=O` [JB-67] (cyclo(RVRTQKGRRIRI[dP]P)) it was more than 1000 nM. Still for that read-out and setting: in the case of `CC[C@H](C)[C@@H]1NC(=O)[C@H](CCCNC(=N)N)NC(=O)[C@H](CCCNC(=N)N)NC(=O)CNC(=O)[C@H](CCCCN)NC(=O)[C@H](Cc2ccc(O)cc2)NC(=O)[C@H]([C@@H](C)O)NC(=O)[C@H](CCCNC(=N)N)NC(=O)[C@H](C(C)C)NC(=O)[C@H](CCCNC(=N)N)NC(=O)[C@@H]2CCCN2C(=O)[C@H]2CCCN2C(=O)[C@H]([C@@H](C)CC)NC(=O)[C@H](CCCNC(=N)N)NC1=O` [JB-68] (cyclo(RVRTYKGRRIRI[dP]P)) it was more than 1000 nM; in that of `CC[C@H](C)[C@@H]1NC(=O)[C@H](CCCNC(=N)N)NC(=O)[C@H](Cc2ccc(O)cc2)NC(=O)CNC(=O)[C@H](CCCCN)NC(=O)[C@H](CCCNC(=N)N)NC(=O)[C@H]([C@@H](C)O)NC(=O)[C@H](CCCNC(=N)N)NC(=O)[C@H](C(C)C)NC(=O)[C@H](CCCNC(=N)N)NC(=O)[C@@H]2CCCN2C(=O)[C@H]2CCCN2C(=O)[C@H]([C@@H](C)CC)NC(=O)[C@H](CCCNC(=N)N)NC1=O` [JB-69] (cyclo(RVRTRKGYRIRI[dP]P)), more than 1000 nM.

For the compound `CC[C@H](C)[C@@H]1NC(=O)[C@H](CCCNC(=N)N)NC(=O)[C@H](Cc2c[nH]c3ccccc23)NC(=O)CNC(=O)[C@H](CCCCN)NC(=O)[C@H](CCCNC(=N)N)NC(=O)[C@H]([C@@H](C)O)NC(=O)[C@H](CCCNC(=N)N)NC(=O)[C@H](C(C)C)NC(=O)[C@H](CCCNC(=N)N)NC(=O)[C@@H]2CCCN2C(=O)[C@H]2CCCN2C(=O)[C@H]([C@@H](C)CC)NC(=O)[C@H](CCCNC(=N)N)NC1=O` [JB-70] (cyclo(RVRTRKGWRIRI[dP]P)), the Kd was more than 1000 nM. On the same count and under the same terms, in the case of `CC[C@H](C)[C@@H]1NC(=O)[C@H](CCCCN)NC(=O)[C@H](CCCNC(=N)N)NC(=O)CNC(=O)[C@H](CCCCN)NC(=O)[C@H](CCCNC(=N)N)NC(=O)[C@H]([C@@H](C)O)NC(=O)[C@H](CCCNC(=N)N)NC(=O)[C@H](C(C)C)NC(=O)[C@H](CCCNC(=N)N)NC(=O)[C@@H]2CCCN2C(=O)[C@H]2CCCN2C(=O)[C@H]([C@@H](C)CC)NC(=O)[C@H](CCCNC(=N)N)NC1=O` [JB-71] (cyclo(RVRTRKGRKIRI[dP]P)) it was more than 1000 nM; in that of `CC[C@H](C)[C@@H]1NC(=O)[C@H](CCCNC(=N)N)NC(=O)[C@H](CCCNC(=N)N)NC(=O)CNC(=O)[C@H](CCCCN)NC(=O)[C@H](CCCNC(=N)N)NC(=O)[C@H]([C@@H](C)O)NC(=O)[C@@H](CCCNC(=N)N)NC(=O)[C@H](C(C)C)NC(=O)[C@H](CCCNC(=N)N)NC(=O)[C@@H]2CCCN2C(=O)[C@H]2CCCN2C(=O)[C@H]([C@@H](C)CC)NC(=O)[C@H](CCCNC(=N)N)NC1=O` [JB-72] (cyclo(RV[dR]TRKGRRIRI[dP]P)), more than 1000 nM. The same measure, in the same setting: the same measure for `CC[C@H](C)[C@@H]1NC(=O)[C@H](Cc2ccc(O)cc2)NC(=O)[C@H](CCCNC(=N)N)NC(=O)CNC(=O)[C@H](CCCCN)NC(=O)[C@H](CCCNC(=N)N)NC(=O)[C@H]([C@@H](C)O)NC(=O)[C@H](CCCNC(=N)N)NC(=O)[C@H](C(C)C)NC(=O)[C@H](CCCNC(=N)N)NC(=O)[C@@H]2CCCN2C(=O)[C@H]2CCCN2C(=O)[C@H]([C@@H](C)CC)NC(=O)[C@H](CCCNC(=N)N)NC1=O` [JB-73] (cyclo(RVRTRKGRYIRI[dP]P)): more than 1000 nM; for `CC[C@H](C)[C@@H]1NC(=O)[C@H](Cc2c[nH]c3ccccc23)NC(=O)[C@H](CCCNC(=N)N)NC(=O)CNC(=O)[C@H](CCCCN)NC(=O)[C@H](CCCNC(=N)N)NC(=O)[C@H]([C@@H](C)O)NC(=O)[C@H](CCCNC(=N)N)NC(=O)[C@H](C(C)C)NC(=O)[C@H](CCCNC(=N)N)NC(=O)[C@@H]2CCCN2C(=O)[C@H]2CCCN2C(=O)[C@H]([C@@H](C)CC)NC(=O)[C@H](CCCNC(=N)N)NC1=O` [JB-74] (cyclo(RVRTRKGRWIRI[dP]P)): more than 1000 nM. Same read-out and setting: the same measure for `CC[C@H](C)[C@@H]1NC(=O)[C@H](CCCNC(=N)N)NC(=O)[C@H](CCCNC(=N)N)NC(=O)CNC(=O)[C@H](CCCCN)NC(=O)[C@H](CCCNC(=N)N)NC(=O)[C@H]([C@@H](C)O)NC(=O)[C@H](CCCNC(=N)N)NC(=O)[C@H](C(C)C)NC(=O)[C@H](CCCNC(=N)N)NC(=O)[C@@H]2CCCN2C(=O)[C@H]2CCCN2C(=O)[C@H]([C@@H](C)CC)NC(=O)[C@H](Cc2c[nH]cn2)NC1=O` [JB-77] (cyclo(RVRTRKGRRIHI[dP]P)): more than 1000 nM.
